According to PubChem BioAssay AID1259407 (Chemical Carcinogenesis Research Information System (CCRIS), 2018):
Calls of active or inactive are those of the source. How the calls were made is not given here.

Test system: CCRIS mutagenicity, Ames/micronucleus/aberration tests
Assay: CCRIS mutagenicity studies

## Nc1ncn([C@@H]2O[C@H](CO)[C@@H](O)[C@H]2O)c(=O)n1
End Point: IN VITRO CHROMOSOMAL ABERRATIONS, Test System: CHO CELLS (K1), Metabolic Activation: NONE
  mutagenic call: active; positive
End Point: IN VITRO CHROMOSOMAL ABERRATIONS, Test System: CHO CELLS (XRS-5), Metabolic Activation: NONE
  mutagenic call: active; positive
Test System: AMES SALMONELLA TYPHIMURIUM, Strain/Indicator: TA92, Metabolic Activation: NONE, Method: STANDARD PLATE
  mutagenic call: active; positive
Test System: AMES SALMONELLA TYPHIMURIUM, Strain/Indicator: TA98, Metabolic Activation: NONE, Method: FLUCTUATION (MICROTITER)
  mutagenic call: active; positive
Test System: AMES SALMONELLA TYPHIMURIUM, Strain/Indicator: TA100, Metabolic Activation: NONE, Method: STANDARD PLATE
  mutagenic call: active; positive
Test System: AMES SALMONELLA TYPHIMURIUM, Strain/Indicator: TA102, Metabolic Activation: NONE, Method: STANDARD PLATE
  mutagenic call: active; positive
Test System: AMES SALMONELLA TYPHIMURIUM, Strain/Indicator: TA104, Metabolic Activation: NONE, Method: STANDARD PLATE
  mutagenic call: active; positive
Test System: AMES SALMONELLA TYPHIMURIUM, Strain/Indicator: TA1535, Metabolic Activation: NONE, Method: STANDARD PLATE
  mutagenic call: active; positive
Test System: AMES SALMONELLA TYPHIMURIUM, Strain/Indicator: TA1535, Metabolic Activation: RAT, LIVER, S-9, AROCLOR 1254, Method: STANDARD PLATE
  mutagenic call: active; positive
Test System: AMES SALMONELLA TYPHIMURIUM, Strain/Indicator: TA1537, Metabolic Activation: NONE, Method: FLUCTUATION (MICROTITER)
  mutagenic call: inactive; negative
Test System: AMES SALMONELLA TYPHIMURIUM, Strain/Indicator: TA2638, Metabolic Activation: NONE, Method: STANDARD PLATE
  mutagenic call: active; positive
Test System: AMES SALMONELLA TYPHIMURIUM, Strain/Indicator: TA2640, Metabolic Activation: NONE, Method: STANDARD PLATE
  mutagenic call: inactive; negative
Test System: AMES SALMONELLA TYPHIMURIUM, Strain/Indicator: TA7001, Metabolic Activation: NONE, Method: FLUCTUATION (MICROTITER)
  mutagenic call: inactive; negative
Test System: AMES SALMONELLA TYPHIMURIUM, Strain/Indicator: TA7002, Metabolic Activation: NONE, Method: FLUCTUATION (MICROTITER)
  mutagenic call: inactive; negative
Test System: AMES SALMONELLA TYPHIMURIUM, Strain/Indicator: TA7003, Metabolic Activation: NONE, Method: FLUCTUATION (MICROTITER)
  mutagenic call: inactive; negative
Test System: AMES SALMONELLA TYPHIMURIUM, Strain/Indicator: TA7004, Metabolic Activation: NONE, Method: FLUCTUATION (MICROTITER)
  mutagenic call: active; positive
Test System: AMES SALMONELLA TYPHIMURIUM, Strain/Indicator: TA7005, Metabolic Activation: NONE, Method: FLUCTUATION (MICROTITER)
  mutagenic call: inactive; negative
Test System: AMES SALMONELLA TYPHIMURIUM, Strain/Indicator: TA7006, Metabolic Activation: NONE, Method: FLUCTUATION (MICROTITER)
  mutagenic call: active; positive
Test System: CHINESE HAMSTER OVARY, Strain/Indicator: CHO-AS52/6-THIOGUANINE, Metabolic Activation: NONE
  mutagenic call: active; positive
Test System: MOUSE LYMPHOMA, Strain/Indicator: L5178Y (TK+/TK-), Metabolic Activation: RAT, LIVER, HEAT-DENATURED S-9, Method: SUSPENSION/PLATE
  mutagenic call: active; positive
Test System: MOUSE LYMPHOMA, Strain/Indicator: L5178Y (TK+/TK-), Metabolic Activation: RAT, LIVER, S-9, AROCLOR 1254, Method: SUSPENSION/PLATE
  mutagenic call: active; positive. reevaluation of results: inconclusive
Test System: MOUSE LYMPHOMA, Strain/Indicator: L5178Y (TK+/TK-), Metabolic Activation: RAT, LIVER, S-9, Method: SUSPENSION/PLATE
  mutagenic call: active; positive
